Source: patent US20190064146A1, “IMMUNE CELLS HAVING INCREASED IMMUNITY OR RESISTANCE TO AN IMMUNOSUPPRESSIVE CYTOKINE AND USE OF THE SAME” (Innate Tumor Immunity, INC., priority 2015, published 2019)

Test system: EG.7 tumor cells
Assay: Adoptive transfer of in vitro activated OT-1 CD8+ T cells into mice with established EG.7 flank tumors
Type: in vivo
Conditions: OT-1 splenocytes activated with OVA antigen 1 μg/mL plus TGF-β 10 ng/mL and IL-1β 10 ng/mL for 5 days; 5×10^6 CD8+ cells intraperitoneally into C57BL/6J mice with 7-day EG.7 tumors
Description: To induce tumor, 1×10^6 EG.7 tumor cells, which expressed the OVA antigen, were injected subcutaneously on the flank of Black/6 mice. In this condition, after 7 days EG.7 cells from palpable tumors. To generate anti-tumor T cells, splenocytes from OT-1 mice, which have a transgenic TCR that recognize OVA antigen, were activated with OVA antigen (1 μg/mL) in the presence of TGF-β, or the presence of TGF-β and IL-1β. After 5 days CD8^+ cells were purified. […] Tumor volume was recorded 3 times a week until the end of the study. […]
OT-1 mice were anesthetized and spleens were harvested and strained through a 70-um filter with PBS with 10% FBS. […] After washing, cells were counted and placed in tissue culture at a final concentration of 1×10^6 cells/mL. […]
Tumors were established with subcutaneous flank injections of 1×10^6 cells suspended in 100 μL PBS. Tumors were measured three times a week and volumes were estimated using the formula 3.14×[largest diameter×(perpendicular diameter)^2]/6. […]
The average tumor volumes of the combination treatment group over time was plotted and compared to control treated with vehicle. […] For statistical comparisons, Two-Way Anova with Bonferroni correction was calculated with GaphPrism software.

## IL-1β: exemplary NLRP3 activator; cytokine interleukin-1β added to T cell culture
  CD8+ antitumor activity against established cancer (tumor volume): promotes CD8^+ antitumor activity against established cancer
